Assay results taken from ChEMBL document CHEMBL5316345, “Discovery of the Potent and Selective MC4R Antagonist PF-07258669 for the Potential Treatment of Appetite Loss” (J Med Chem, 2023).
Active and inactive are the calls of the source. The rule behind the calls is not given here.

How the values were obtained:
[1] = Passive apparent permeability in MDCKII-LE cells; format: ADME, cell-based, Canis lupus familiaris; conditions: dog, MDCK; read-out: permeability (converted)
Cytochrome P450 3A = Cytochrome P450 3A (Homo sapiens, UniProt P08684+P20815+Q9HB55+P24462); test: Time dependent inhibition of CYP3A (unknown origin) at 10 uM relative to control; format: ADME, protein assay
[2] = biological target: Voltage-gated inwardly rectifying potassium channel KCNH2 (Homo sapiens, UniProt Q12809); test: Inhibition of hERG expressed in CHO cells stably at -80 mV holding potential by automated patch clamp method; format: toxicity, cell-based
[3] = Metabolic stability in human hepatocyte assessed as intrinsic clearance measured per million cells HPLC/UV/MS analysis; format: ADME, cell-based; conditions: hepatocytes, read-out: CLH
[4] = Octanol-water distribution coefficient, logD of the compound at pH 7.4 by RP-HPLC analysis; format: physicochemical
[5] = Lipophilicity, logD of compound at pH 7.4 by shake flask method; format: physicochemical; conditions: buffer
Melanocortin receptor 3 = Melanocortin receptor 3 (Homo sapiens, UniProt P41968); test: Displacement of [125I]-NDP-alpha-MSH from human MC3R expressed in CHO cells measured for 2 hrs by microbeta counter analysis; format: cell-based
[6] = biological target: T1, Melanocyte-stimulating hormone receptor (Homo sapiens, UniProt Q01726); test: Agonist activity at human MC1R expressed in CHO cells assessed as increase in alpha-MSH induced cAMP level measured for 60 mins; format: functional, cell-based
Target sequence in this assay (Q01726 whole entry, looked up): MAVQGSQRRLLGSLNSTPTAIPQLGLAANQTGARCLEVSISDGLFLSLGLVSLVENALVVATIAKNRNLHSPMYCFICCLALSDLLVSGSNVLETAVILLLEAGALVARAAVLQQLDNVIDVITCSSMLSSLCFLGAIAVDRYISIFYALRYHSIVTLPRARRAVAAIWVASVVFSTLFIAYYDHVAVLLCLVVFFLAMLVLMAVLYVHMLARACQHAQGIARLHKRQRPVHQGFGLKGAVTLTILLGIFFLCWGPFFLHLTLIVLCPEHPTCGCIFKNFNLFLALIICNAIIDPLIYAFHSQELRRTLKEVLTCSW

Melanocortin receptor 4 = Melanocortin receptor 4 (Rattus norvegicus, UniProt P70596); test: Displacement of [125I]-NDP-alpha-MSH from rat MC4R expressed in CHO cells by microbeta counter analysis; format: cell-based
[7] = Displacement of [125I]-NDP-alpha-MSH from dog MC4R expressed in CHO cells by microbeta counter analysis; format: cell-based, Canis lupus familiaris
[8] = biological target: T1, Melanocyte-stimulating hormone receptor; test: Displacement of [125I]-NDP-alpha-MSH from human MC1R expressed in CHO cells measured for 2 hrs by microbeta counter analysis; format: cell-based
Target sequence in this assay (Q01726 whole entry): as the sequence (Q01726 whole entry, looked up) above

[9] = biological target: Adrenocorticotropic hormone receptor (Homo sapiens) (UniProt Q01718); test: Agonist activity at human MC2R expressed in CHO cells assessed as increase in alpha-MSH induced cAMP level measured for 60 mins; format: functional, cell-based
[10] = Clearance in Wistar Han rat plasma at 1 mg/kg, iv measured at 0.033 to 24 hrs by LC-MS/MS analysis; format: ADME, organism-based; conditions: time 0.033-24 hrs
[11] = Clearance in Beagle dog plasma at 1 mg/kg, iv measured at 0.033 to 24 hrs by LC-MS/MS analysis; format: ADME, organism-based, Canis lupus familiaris; conditions: time 0.033-24 hrs
[12] = Volume of distribution at steady state in Wistar Han rat at 1 mg/kg, iv measured at 0.033 to 24 hrs by LC-MS/MS analysis; format: ADME, organism-based; conditions: in vivo, time 0.033-24 hrs, read-out: Vdss
[13] = Volume of distribution at steady state in Beagle dog at 1 mg/kg, iv measured at 0.033 to 24 hrs by LC-MS/MS analysis; format: ADME, organism-based, Canis lupus familiaris; conditions: in vivo, time 0.033-24 hrs, read-out: Vdss
[14] = Half life in Wistar Han rat at 1 mg/kg, iv measured at 0.033 to 24 hrs by LC-MS/MS analysis; format: ADME, organism-based; conditions: in vivo, time 0.033-24 hrs
[15] = Half life in Wistar Han rat at 5 mg/kg, po measured at 0.083 to 24 hrs by LC-MS/MS analysis; format: ADME, organism-based; conditions: in vivo, time 0.083-24 hrs
[16] = Half life in Beagle dog at 1 mg/kg, iv measured at 0.033 to 24 hrs by LC-MS/MS analysis; format: ADME, organism-based, Canis lupus familiaris; conditions: in vivo, time 0.033-24 hrs
[17] = Cmax in Beagle dog at 1 mg/kg, po measured at 0.25 to 24 hrs by LC-MS/MS analysis; format: ADME, organism-based, Canis lupus familiaris; set-up: dose 1 mg/kg, time 0.25-24 hrs, route po; conditions: in vivo
[18] = AUC (0 to infinity) in Beagle dog at 1 mg/kg, po measured at 0.25 to 24 hrs by LC-MS/MS analysis; format: ADME, organism-based, Canis lupus familiaris; set-up: time upper 24 hrs, time lower 0.25 hrs, dose 1 mg/kg, route po; conditions: in vivo
[19] = AUClast in Wistar Han rat at 1 mg/kg, iv measured at 0.033 to 24 hrs by LC-MS/MS analysis; format: ADME, organism-based; set-up: dose 1 mg/kg, time upper 24 hrs, time lower 0.033 hrs, route iv; conditions: in vivo
[20] = AUClast in Wistar Han rat at 5 mg/kg, po measured at 0.083 to 24 hrs by LC-MS/MS analysis; format: ADME, organism-based; set-up: time upper 24 hrs, dose 5 mg/kg, time lower 0.083 hrs, route po; conditions: in vivo
[21] = AUClast in Beagle dog at 1 mg/kg, iv measured at 0.033 to 24 hrs by LC-MS/MS analysis; format: ADME, organism-based, Canis lupus familiaris; set-up: dose 1 mg/kg, time 0.033-24 hrs, route iv; conditions: in vivo
[22] = AUClast in Beagle dog at 1 mg/kg, po measured at 0.25 to 24 hrs by LC-MS/MS analysis; format: ADME, organism-based, Canis lupus familiaris; set-up: time upper 24 hrs, dose 1 mg/kg, time lower 0.25 hrs, route po; conditions: in vivo
[23] = Oral bioavailability in Wistar Han rat at 5 mg/kg measured at 0.083 to 24 hrs by LC-MS/MS analysis; format: ADME, organism-based; conditions: in vivo, time 0.083-24 hrs
Mus musculus [24] = test: Effect on body weight in anorexia/cachexia mouse model assessed as increase in food intake administered twice a day for 20 days and measured at 1 to 21 days; format: functional, organism-based; conditions: dose 0.3-10 mg/kg, time 1-21 day
Mus musculus [25] = test: Effect on body weight in anorexia/cachexia mouse model assessed as cumulative body weight gain at 0.3 mg/kg, po administered twice a day for 20 days and measured at 1 to 21 days; format: functional; conditions: time 1-21 day
Mus musculus [26] = test: Effect on body weight in anorexia/cachexia mouse model assessed as cumulative body weight gain at 1 mg/kg, po administered twice a day for 20 days and measured at 1 to 21 days; format: functional; conditions: time 1-21 day
Mus musculus [27] = test: Effect on body weight in anorexia/cachexia mouse model assessed as reduction in cumulative food intake at 0.3 mg/kg, po administered twice a day for 20 days and measured at 1 to 21 days; format: functional; set-up: scale not given: the % may be the effect or the level left; conditions: time 1-21 day
Mus musculus [28] = test: Effect on body weight in anorexia/cachexia mouse model assessed as reduction in cumulative food intake at 3 mg/kg, po administered twice a day for 20 days and measured at 1 to 21 days; format: functional; set-up: scale not given: the % may be the effect or the level left; conditions: time 20 day
Mus musculus [29] = test: Effect on body weight in anorexia/cachexia mouse model assessed as reduction in cumulative food intake at 10 mg/kg, po administered twice a day for 20 days and measured at 1 to 21 days; format: functional; set-up: scale not given: the % may be the effect or the level left; conditions: time 20 day
[30] = biological target: Dual specificity calcium/calmodulin-dependent 3',5'-cyclic nucleotide phosphodiesterase 1B (Homo sapiens, UniProt Q01064); test: Inhibition of human PDE1B1
[31] = biological target: 3',5'-cyclic-AMP phosphodiesterase 4D (Homo sapiens, UniProt Q08499); test: Inhibition of human PDE4D3
[32] = biological target: 3',5'-cyclic-AMP phosphodiesterase 7B (Homo sapiens, UniProt Q9NP56); test: Inhibition of human PDE7B
[33] = biological target: High affinity cAMP-specific and IBMX-insensitive 3',5'-cyclic phosphodiesterase 8B (Homo sapiens, UniProt O95263); test: Inhibition of human PDE8B
[34] = biological target: High affinity cGMP-specific 3',5'-cyclic phosphodiesterase 9A (Homo sapiens, UniProt O76083); test: Inhibition of human PDE9A1
[35] = biological target: cAMP and cAMP-inhibited cGMP 3',5'-cyclic phosphodiesterase 10A (Homo sapiens, UniProt Q9Y233); test: Inhibition of human PDE10A1
[36] = biological target: Dual 3',5'-cyclic-AMP and -GMP phosphodiesterase 11A (Homo sapiens, UniProt Q9HCR9); test: Inhibition of human PDE11A4
Sequence of Dual 3',5'-cyclic-AMP and -GMP phosphodiesterase 11A (Q9HCR9 whole entry): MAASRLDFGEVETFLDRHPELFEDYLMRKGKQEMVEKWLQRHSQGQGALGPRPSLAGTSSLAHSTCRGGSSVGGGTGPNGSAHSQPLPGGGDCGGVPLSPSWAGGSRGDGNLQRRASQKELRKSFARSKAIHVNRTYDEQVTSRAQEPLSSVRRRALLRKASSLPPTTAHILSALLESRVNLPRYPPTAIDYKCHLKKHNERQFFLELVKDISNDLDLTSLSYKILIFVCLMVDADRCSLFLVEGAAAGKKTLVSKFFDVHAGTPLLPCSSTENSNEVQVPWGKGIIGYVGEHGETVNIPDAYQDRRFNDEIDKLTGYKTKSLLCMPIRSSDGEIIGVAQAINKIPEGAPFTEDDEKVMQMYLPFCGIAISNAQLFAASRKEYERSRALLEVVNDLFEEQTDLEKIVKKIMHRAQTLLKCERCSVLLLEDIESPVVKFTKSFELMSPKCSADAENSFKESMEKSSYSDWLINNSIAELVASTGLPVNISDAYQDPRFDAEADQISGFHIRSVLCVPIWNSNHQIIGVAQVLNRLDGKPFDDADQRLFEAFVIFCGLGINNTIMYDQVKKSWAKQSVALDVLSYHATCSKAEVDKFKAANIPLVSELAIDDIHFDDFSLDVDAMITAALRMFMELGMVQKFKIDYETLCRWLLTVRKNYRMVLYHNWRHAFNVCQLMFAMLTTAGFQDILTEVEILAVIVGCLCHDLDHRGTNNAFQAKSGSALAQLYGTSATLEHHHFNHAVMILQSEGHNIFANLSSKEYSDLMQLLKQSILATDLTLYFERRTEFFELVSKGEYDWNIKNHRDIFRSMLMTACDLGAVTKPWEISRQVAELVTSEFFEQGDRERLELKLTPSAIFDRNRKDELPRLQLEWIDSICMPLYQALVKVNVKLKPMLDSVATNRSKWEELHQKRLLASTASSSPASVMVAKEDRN

Sequence of 3',5'-cyclic-AMP phosphodiesterase 4D (Q08499 whole entry): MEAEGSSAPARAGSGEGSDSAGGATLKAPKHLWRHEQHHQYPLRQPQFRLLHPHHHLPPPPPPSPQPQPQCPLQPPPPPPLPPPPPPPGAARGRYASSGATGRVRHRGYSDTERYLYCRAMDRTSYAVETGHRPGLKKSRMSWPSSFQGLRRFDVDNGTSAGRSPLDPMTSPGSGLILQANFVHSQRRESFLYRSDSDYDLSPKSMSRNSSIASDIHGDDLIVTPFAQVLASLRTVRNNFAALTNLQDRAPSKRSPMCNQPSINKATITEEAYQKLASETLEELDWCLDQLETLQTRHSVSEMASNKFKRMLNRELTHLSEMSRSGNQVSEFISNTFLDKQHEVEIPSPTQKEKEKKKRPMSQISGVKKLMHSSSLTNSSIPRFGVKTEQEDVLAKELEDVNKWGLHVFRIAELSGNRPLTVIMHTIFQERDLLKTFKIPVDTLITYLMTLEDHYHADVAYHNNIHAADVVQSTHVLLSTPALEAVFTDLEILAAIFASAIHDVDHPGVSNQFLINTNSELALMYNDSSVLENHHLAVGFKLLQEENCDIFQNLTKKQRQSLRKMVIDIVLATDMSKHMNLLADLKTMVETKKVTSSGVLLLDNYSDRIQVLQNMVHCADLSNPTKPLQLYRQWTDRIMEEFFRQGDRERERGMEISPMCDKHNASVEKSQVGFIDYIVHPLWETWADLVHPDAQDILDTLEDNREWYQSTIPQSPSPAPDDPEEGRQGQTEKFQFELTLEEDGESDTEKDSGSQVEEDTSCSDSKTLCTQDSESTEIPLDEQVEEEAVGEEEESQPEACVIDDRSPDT
Sequence of Melanocortin receptor 4 (P70596 whole entry): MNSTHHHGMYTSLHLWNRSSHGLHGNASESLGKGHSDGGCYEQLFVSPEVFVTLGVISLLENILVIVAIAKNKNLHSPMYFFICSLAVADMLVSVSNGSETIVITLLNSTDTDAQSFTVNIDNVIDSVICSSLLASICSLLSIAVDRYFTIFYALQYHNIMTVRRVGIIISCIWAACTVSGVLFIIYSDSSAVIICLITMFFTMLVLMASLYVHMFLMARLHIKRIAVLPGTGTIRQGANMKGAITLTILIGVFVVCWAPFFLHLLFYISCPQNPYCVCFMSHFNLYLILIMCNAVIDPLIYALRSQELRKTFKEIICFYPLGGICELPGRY
Sequence of High affinity cGMP-specific 3',5'-cyclic phosphodiesterase 9A (O76083 whole entry): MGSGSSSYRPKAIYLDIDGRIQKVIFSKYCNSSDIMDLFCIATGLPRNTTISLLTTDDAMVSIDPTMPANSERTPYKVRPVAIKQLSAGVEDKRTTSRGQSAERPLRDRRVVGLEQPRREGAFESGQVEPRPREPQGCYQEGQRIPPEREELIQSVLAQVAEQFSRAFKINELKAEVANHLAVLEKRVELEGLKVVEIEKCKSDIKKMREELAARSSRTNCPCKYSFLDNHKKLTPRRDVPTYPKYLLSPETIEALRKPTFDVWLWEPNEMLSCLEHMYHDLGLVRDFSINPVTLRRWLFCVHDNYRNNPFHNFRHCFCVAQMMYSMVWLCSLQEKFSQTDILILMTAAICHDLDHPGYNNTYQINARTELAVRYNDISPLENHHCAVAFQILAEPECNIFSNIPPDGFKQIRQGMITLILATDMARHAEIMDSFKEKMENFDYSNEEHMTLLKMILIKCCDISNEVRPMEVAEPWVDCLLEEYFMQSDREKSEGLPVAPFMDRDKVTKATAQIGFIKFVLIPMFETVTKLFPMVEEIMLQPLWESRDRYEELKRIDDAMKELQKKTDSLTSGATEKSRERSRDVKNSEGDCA
Sequence of Adrenocorticotropic hormone receptor (Homo sapiens) (Q01718 whole entry): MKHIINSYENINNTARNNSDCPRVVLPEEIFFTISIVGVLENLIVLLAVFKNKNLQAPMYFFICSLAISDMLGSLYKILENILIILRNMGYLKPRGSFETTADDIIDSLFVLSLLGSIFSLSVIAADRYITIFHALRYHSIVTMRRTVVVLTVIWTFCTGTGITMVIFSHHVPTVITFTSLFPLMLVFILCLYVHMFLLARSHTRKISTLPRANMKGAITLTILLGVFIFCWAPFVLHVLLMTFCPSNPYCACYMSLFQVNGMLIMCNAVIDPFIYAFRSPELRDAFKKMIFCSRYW
Sequence of Dual specificity calcium/calmodulin-dependent 3',5'-cyclic nucleotide phosphodiesterase 1B (Q01064 whole entry): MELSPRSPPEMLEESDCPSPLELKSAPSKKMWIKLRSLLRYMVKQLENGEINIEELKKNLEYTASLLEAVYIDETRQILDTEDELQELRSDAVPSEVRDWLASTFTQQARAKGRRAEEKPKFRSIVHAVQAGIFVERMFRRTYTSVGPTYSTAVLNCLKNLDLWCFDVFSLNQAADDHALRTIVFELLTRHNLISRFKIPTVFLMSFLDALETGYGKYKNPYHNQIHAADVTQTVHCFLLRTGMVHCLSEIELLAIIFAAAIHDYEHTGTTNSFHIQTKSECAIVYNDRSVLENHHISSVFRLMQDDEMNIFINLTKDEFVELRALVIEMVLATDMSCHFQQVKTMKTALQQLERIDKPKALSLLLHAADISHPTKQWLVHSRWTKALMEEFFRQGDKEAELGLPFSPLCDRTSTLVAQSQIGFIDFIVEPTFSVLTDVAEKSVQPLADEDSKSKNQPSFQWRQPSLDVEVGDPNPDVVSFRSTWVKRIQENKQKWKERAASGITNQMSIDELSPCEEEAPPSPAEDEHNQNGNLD
Sequence of cAMP and cAMP-inhibited cGMP 3',5'-cyclic phosphodiesterase 10A (Q9Y233 whole entry): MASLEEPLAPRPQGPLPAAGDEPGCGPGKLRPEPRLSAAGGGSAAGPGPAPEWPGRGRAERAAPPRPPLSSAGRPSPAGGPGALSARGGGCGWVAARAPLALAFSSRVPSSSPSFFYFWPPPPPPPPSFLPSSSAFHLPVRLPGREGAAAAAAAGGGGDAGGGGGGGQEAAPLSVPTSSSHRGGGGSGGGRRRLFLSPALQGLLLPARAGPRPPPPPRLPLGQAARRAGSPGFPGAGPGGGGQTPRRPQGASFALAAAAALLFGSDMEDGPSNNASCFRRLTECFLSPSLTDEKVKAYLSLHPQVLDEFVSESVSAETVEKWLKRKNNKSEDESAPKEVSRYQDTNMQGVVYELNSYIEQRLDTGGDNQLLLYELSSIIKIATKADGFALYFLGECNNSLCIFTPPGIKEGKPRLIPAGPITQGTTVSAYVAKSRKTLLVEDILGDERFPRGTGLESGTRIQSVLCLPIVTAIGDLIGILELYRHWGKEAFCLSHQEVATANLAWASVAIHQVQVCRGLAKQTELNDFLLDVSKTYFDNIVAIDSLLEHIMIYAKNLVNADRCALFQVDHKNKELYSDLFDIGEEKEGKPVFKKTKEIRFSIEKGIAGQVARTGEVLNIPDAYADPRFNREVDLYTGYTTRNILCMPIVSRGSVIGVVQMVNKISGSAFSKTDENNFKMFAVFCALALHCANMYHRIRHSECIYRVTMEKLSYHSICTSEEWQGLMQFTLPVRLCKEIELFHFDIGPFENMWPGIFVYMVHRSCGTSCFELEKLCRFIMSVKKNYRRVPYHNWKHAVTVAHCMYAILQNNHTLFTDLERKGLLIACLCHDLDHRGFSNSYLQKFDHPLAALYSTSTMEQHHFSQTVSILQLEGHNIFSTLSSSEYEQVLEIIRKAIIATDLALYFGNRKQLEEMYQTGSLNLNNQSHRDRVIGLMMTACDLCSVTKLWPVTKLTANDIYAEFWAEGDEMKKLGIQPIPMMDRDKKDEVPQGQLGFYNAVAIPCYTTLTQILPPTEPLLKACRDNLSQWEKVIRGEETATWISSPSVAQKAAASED

SMILES: COc1cc([C@@H](C)C(=O)N2CC[C@@]3(COc4cc(-c5ncccn5)c(C)nc4N3)C2)c(F)cn1
- Papp [1]: 0.467 ×10⁻⁶ cm/s
- K (Cytochrome P450 3A): 0.09 min⁻¹
- IC50 [2]: 27 µM
- hepatocyte CLint [3]: 12 µL/min/1e6 cells
- logD [4]: 2.6
- logD [5]: 2.6
- Ki (Melanocortin receptor 3): 0.34 µM
- Activity [6]: inactive
- Ki (Melanocortin receptor 4): 0.00052 µM
- Ki [7]: 0.094 nM
- Ki [8]: > 1.6 µM
- Activity [9]: inactive
- clearance [10]: 21 mL/min/kg
- clearance [11]: 11 mL/min/kg
- Vd [12]: 0.95 L/kg
- Vd [13]: 1.3 L/kg
- half-life [14]: 1 h
- half-life [15]: 0.98 h
- half-life [16]: 2.3 h
- Cmax [17]: 1470 ng/mL
- AUC [18]: 4610 ng·h/mL
- AUC(0-t) [19]: 780 ng·h/mL
- AUC(0-t) [20]: 1110 ng·h/mL
- AUC(0-t) [21]: 1640 ng·h/mL
- AUC(0-t) [22]: 4580 ng·h/mL
- bioavailability [23]: 28%
- Activity (Mus musculus [24]): Dose-Dependent Effect
- Activity (Mus musculus [25]): 2%
- Activity (Mus musculus [26]): 5%
- Activity (Mus musculus [27]): 23%
- Activity (Mus musculus [28]): 40%
- Activity (Mus musculus [29]): 111%
- IC50 [30]: > 50 µM
- IC50 [31]: > 50 µM
- IC50 [32]: > 50 µM
- IC50 [33]: > 50 µM
- IC50 [34]: > 50 µM
- IC50 [35]: > 50 µM
- IC50 [36]: > 50 µM
